Assay results as given in PubChem BioAssay AID330 (DTP/NCI, 2004).
Several values for one entry are separate records, joined by “and”; a condition that tells them apart may be missing. Equal entries are not always repeated. Inconclusive results and toxic doses are left out.

Tested on: P388 leukemia ip, CD2F1 mice, survival T/C
Test: NCI In Vivo Anticancer Drug Screen. Data for tumor model P388 Leukemia (intraperitoneal) in CD2F1 (CDF1) mice
Conditions: endpoint: median survival time, higher = longer survival
Procedure, shortened: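 Mice carrying the transplanted tumor received test compound or vehicle. Survival was recorded in each group, and the value is the treated-group measurement divided by that of the vehicle-treated control group.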

[1] = dose: 60.0 mg/kg/injection, schedule: Q01DX005 (ip), vehicle: saline with Tween-80
[2] = dose: 120.0 mg/kg/injection, schedule: Q01DX005 (ip), vehicle: saline with Tween-80
[3] = dose: 240.0 mg/kg/injection, schedule: Q01DX005 (ip), vehicle: saline with Tween-80
[4] = dose: 50.0 mg/kg/injection, schedule: Q01DX005 (ip), vehicle: saline with Tween-80
[5] = dose: 100.0 mg/kg/injection, schedule: Q01DX005 (ip), vehicle: saline with Tween-80
[6] = dose: 200.0 mg/kg/injection, schedule: Q01DX005 (ip), vehicle: saline with Tween-80
[7] = dose: 12.5 mg/kg/injection, schedule: Q01DX005 (ip), vehicle: Klucel (hydroxypropylcellulose) (HPC)
[8] = dose: 25.0 mg/kg/injection, schedule: Q01DX005 (ip), vehicle: Klucel (hydroxypropylcellulose) (HPC)
[9] = dose: 50.0 mg/kg/injection, schedule: Q01DX005 (ip), vehicle: Klucel (hydroxypropylcellulose) (HPC)
[10] = dose: 100.0 mg/kg/injection, schedule: Q01DX005 (ip), vehicle: Klucel (hydroxypropylcellulose) (HPC)
[11] = dose: 200.0 mg/kg/injection, schedule: Q01DX005 (ip), vehicle: Klucel (hydroxypropylcellulose) (HPC)
[12] = dose: 50.0 mg/kg/injection, schedule: Q01DX009 (ip), vehicle: Klucel (hydroxypropylcellulose) (HPC)
[13] = dose: 100.0 mg/kg/injection, schedule: Q01DX009 (ip), vehicle: Klucel (hydroxypropylcellulose) (HPC)
[14] = dose: 200.0 mg/kg/injection, schedule: Q01DX009 (ip), vehicle: Klucel (hydroxypropylcellulose) (HPC)
[15] = dose: 100.0 mg/kg/injection, schedule: Q01DX001 (ip), vehicle: saline with Tween-80
[16] = dose: 200.0 mg/kg/injection, schedule: Q01DX001 (ip), vehicle: saline with Tween-80
[17] = dose: 400.0 mg/kg/injection, schedule: Q01DX001 (ip), vehicle: saline with Tween-80
[18] = dose: 100.0 mg/kg/injection, schedule: Q04DX003 (ip), vehicle: Klucel (hydroxypropylcellulose) (HPC)
[19] = dose: 200.0 mg/kg/injection, schedule: Q04DX003 (ip), vehicle: Klucel (hydroxypropylcellulose) (HPC)
[20] = dose: 400.0 mg/kg/injection, schedule: Q04DX003 (ip), vehicle: Klucel (hydroxypropylcellulose) (HPC)

## COC(=O)c1cc(Nc2ccccc2)c2ncccc2c1O
[1]
  T/C: 92 % of control
[2]
  T/C: 98 % of control
[3]
  T/C: 98 % of control

## Cc1cccc(Nc2cc(Cl)nc(SCC(=O)O)n2)c1C
dose: 50.0 mg/kg/injection, schedule: Q01DX009 (ip), vehicle: saline
  T/C: 100 % of control
dose: 100.0 mg/kg/injection, schedule: Q01DX009 (ip), vehicle: saline
  T/C: 98 % of control
dose: 200.0 mg/kg/injection, schedule: Q01DX009 (ip), vehicle: saline
  T/C: 100 % of control

## CC(=O)NNC(=S)Nc1ccccc1
[4]
  T/C: 100 % of control
[5]
  T/C: 101 % of control
[6]
  T/C: 100 % of control

## CCP(CC)(c1ccccc1)=c1c(=O)c(Cl)c(Cl)c(=O)c1=O
dose: 6.25 mg/kg/injection, schedule: Q01DX005 (ip), vehicle: Klucel (hydroxypropylcellulose) (HPC)
  T/C: 100 % of control
[7]
  T/C: 102 % of control
[8]
  T/C: 100 % of control

## CC1C(=O)C2(C(=O)O)CC1CCC2C12C=CC(=O)C(C)(C)C1C(=O)OC2 (stereo not drawn)
dose: 50.0 mg/kg/injection, schedule: Q04DX002 (ip), vehicle: saline with Tween-80
  T/C: 100 % of control
dose: 100.0 mg/kg/injection, schedule: Q04DX002 (ip), vehicle: saline with Tween-80
  T/C: 95 % of control
dose: 200.0 mg/kg/injection, schedule: Q04DX002 (ip), vehicle: saline with Tween-80
  T/C: 91 % of control

## CN=C(NC#N)NCCSCc1nc[nH]c1C
[8]
  T/C: 102 % of control
[9]
  T/C: 93 % of control
[10]
  T/C: 93 % of control
[11]
  T/C: 102 % of control
dose: 400.0 mg/kg/injection, schedule: Q01DX005 (ip), vehicle: Klucel (hydroxypropylcellulose) (HPC)
  T/C: 93 % of control

## CCCc1c(-n2[nH]c(=O)n(-c3ccccc3)c2=O)c(=O)n(C)c(=O)n1C
[12]
  T/C: 110 % of control
[13]
  T/C: 105 % of control
[14]
  T/C: 95 % of control

## CSc1nnc(CCC(=O)Nc2cc(Cl)c(Cl)cc2Cl)o1
[1]
  T/C: 106 % of control
[2]
  T/C: 105 % of control
[3]
  T/C: 98 % of control

## O=C(O)C1CCCN1C(=O)c1cccc(Cl)c1 (stereo not drawn)
[4]
  T/C: 94 % of control
[5]
  T/C: 96 % of control
[6]
  T/C: 87 % of control

## CCC(c1ccc(OC)cc1)C(NC(=S)Nc1ccc(Br)cc1)c1ccc(OC)cc1 (stereo not drawn)
[15]
  T/C: 96 % of control
[16]
  T/C: 99 % of control
[17]
  T/C: 93 % of control

## O=C(CCCc1ccc(N(CCCl)CCCl)cc1)Nc1ncccn1
dose: 5.3 mg/kg/injection, schedule: Q01DX009 (ip), vehicle: Klucel (hydroxypropylcellulose) (HPC)
  T/C: 95 % of control
dose: 8.0 mg/kg/injection, schedule: Q01DX009 (ip), vehicle: Klucel (hydroxypropylcellulose) (HPC)
  T/C: 159 % of control
dose: 12.0 mg/kg/injection, schedule: Q01DX009 (ip), vehicle: Klucel (hydroxypropylcellulose) (HPC)
  T/C: 150 % of control
dose: 18.0 mg/kg/injection, schedule: Q01DX009 (ip), vehicle: Klucel (hydroxypropylcellulose) (HPC)
  T/C: 159 % of control

## CCOC(=O)c1ccc(NN=NC(C)(C)C)cc1
dose: 12.5 mg/kg/injection, schedule: Q01DX009 (ip), vehicle: distilled water + Tween-80
  T/C: 91 % of control
dose: 25.0 mg/kg/injection, schedule: Q01DX009 (ip), vehicle: distilled water + Tween-80
  T/C: 93 % of control
dose: 50.0 mg/kg/injection, schedule: Q01DX009 (ip), vehicle: distilled water + Tween-80
  T/C: 86 % of control
dose: 100.0 mg/kg/injection, schedule: Q01DX009 (ip), vehicle: distilled water + Tween-80
  T/C: 93 % of control
dose: 200.0 mg/kg/injection, schedule: Q01DX009 (ip), vehicle: distilled water + Tween-80
  T/C: 86 % of control

## S=C(Nc1ccccc1)P(c1ccccc1)c1ccccc1
[9]
  T/C: 111 % of control and 99 % of control
[10]
  T/C: 116 % of control and 89 % of control
[11]
  T/C: 111 % of control and 89 % of control

## CCOc1c(OC)cc(-c2n[nH]c(=S)o2)cc1OC
[18]
  T/C: 101 % of control
[19]
  T/C: 95 % of control
[20]
  T/C: 100 % of control

## COc1c2occc2c(NC(=O)C(F)(F)F)c2ccc(=O)oc12
dose: 100.0 mg/kg/injection, schedule: Q04DX002 (ip), vehicle: saline
  T/C: 100 % of control
dose: 200.0 mg/kg/injection, schedule: Q04DX002 (ip), vehicle: saline
  T/C: 101 % of control

## CC(=O)OC1CN(C)CC=C1c1ccccc1 (stereo not drawn)
dose: 15.0 mg/kg/injection, schedule: Q01DX005 (ip), vehicle: saline with Tween-80
  T/C: 91 % of control
dose: 30.0 mg/kg/injection, schedule: Q01DX005 (ip), vehicle: saline with Tween-80
  T/C: 97 % of control
[1]
  T/C: 100 % of control and 97 % of control

## Clc1ccc(CN2COc3c(ccc4cccnc34)C2)cc1
dose: 50.0 mg/kg/injection, schedule: Q04DX003 (ip), vehicle: Klucel (hydroxypropylcellulose) (HPC)
  T/C: 101 % of control and 115 % of control
[18]
  T/C: 101 % of control and 105 % of control and 97 % of control
[19]
  T/C: 100 % of control and 103 % of control and 123 % of control
[20]
  T/C: 93 % of control

## COc1ccc2sc3c(C)ccc(NCCCC4CCCN5CCCCC45)c3c(=O)c2c1 (stereo not drawn)
dose: 6.25 mg/kg/injection, schedule: Q01DX005 (ip), vehicle: saline with Tween-80
  T/C: 94 % of control
dose: 12.5 mg/kg/injection, schedule: Q01DX005 (ip), vehicle: saline with Tween-80
  T/C: 92 % of control
dose: 25.0 mg/kg/injection, schedule: Q01DX005 (ip), vehicle: saline with Tween-80
  T/C: 89 % of control

## N#CC(Cl)CNC(=O)Oc1ccccc1 (stereo not drawn)
[9]
  T/C: 97 % of control

## COC(=O)c1cc2c(cc1C(=O)OC)C(=O)c1ccccc1C2=O
[1]
  T/C: 100 % of control
[2]
  T/C: 101 % of control
[3]
  T/C: 92 % of control

## C=CCCCCCCCCCC(CCCCCC)C(=O)O (stereo not drawn)
dose: 50.0 mg/kg/injection, schedule: Q01DX001 (ip), vehicle: saline with Tween-80
  T/C: 91 % of control
[15]
  T/C: 100 % of control
[16]
  T/C: 95 % of control

## CC(=O)O[C@@H]1C[C@@]2(C)C(CC(=O)[C@@H](C)[C@@H]2CC(=O)c2ccoc2)[C@@H](CO)[C@@H]1O (stereo partly drawn)
[7]
  T/C: 103 % of control
[8]
  T/C: 100 % of control
[9]
  T/C: 109 % of control
[10]
  T/C: 106 % of control
dose: 100.0 mg/kg/injection, schedule: Q01DX005 (ip), vehicle: Klucel + Tween-80
  T/C: 107 % of control
dose: 200.0 mg/kg/injection, schedule: Q01DX005 (ip), vehicle: Klucel + Tween-80
  T/C: 107 % of control
dose: 400.0 mg/kg/injection, schedule: Q01DX005 (ip), vehicle: Klucel + Tween-80
  T/C: 101 % of control

## COc1ccc(/C=C\C(=O)c2ccc(C(=O)/C=C/c3ccc(OC)cc3OC)cc2)c(OC)c1
dose: 12.5 mg/kg/injection, schedule: Q04DX003 (ip), vehicle: saline with Tween-80
  T/C: 100 % of control
dose: 25.0 mg/kg/injection, schedule: Q04DX003 (ip), vehicle: saline with Tween-80
  T/C: 102 % of control
dose: 50.0 mg/kg/injection, schedule: Q04DX003 (ip), vehicle: saline with Tween-80
  T/C: 92 % of control

## COc1cc(/C(C)=N/N=C(\C)c2ccc(O)c(OC)c2)ccc1O
[15]
  T/C: 100 % of control
[16]
  T/C: 95 % of control
[17]
  T/C: 100 % of control

## COc1ccc(/C=C/C(=O)c2c(N)n(C)c(=O)n(C)c2=O)cc1
[9]
  T/C: 91 % of control
[10]
  T/C: 88 % of control

## COc1ccc(C2CC(c3ccccc3)=Nc3ccccc3S2)cc1OC (stereo not drawn)
[12]
  T/C: 102 % of control
[13]
  T/C: 90 % of control
[14]
  T/C: 96 % of control

## S=C1NCCOc2ccccc21
dose: 60.0 mg/kg/injection, schedule: Q01DX005 (ip), vehicle: Klucel (hydroxypropylcellulose) (HPC)
  T/C: 100 % of control
dose: 120.0 mg/kg/injection, schedule: Q01DX005 (ip), vehicle: Klucel (hydroxypropylcellulose) (HPC)
  T/C: 100 % of control

## Nc1cc(Cl)cc2c1-c1ccc(Cl)cc1C2=O
[8]
  T/C: 96 % of control
[9]
  T/C: 91 % of control
[10]
  T/C: 90 % of control
[11]
  T/C: 89 % of control

## COc1cccc(CSC(C(=O)O)c2ccccc2)c1 (stereo not drawn)
dose: 50.0 mg/kg/injection, schedule: Q01DX009 (ip), vehicle: saline with Tween-80
  T/C: 107 % of control
dose: 100.0 mg/kg/injection, schedule: Q01DX009 (ip), vehicle: saline with Tween-80
  T/C: 101 % of control
dose: 200.0 mg/kg/injection, schedule: Q01DX009 (ip), vehicle: saline with Tween-80
  T/C: 117 % of control
